Several values for one entry are separate records, joined by “and”; a condition that tells them apart may be missing. Identical values can stand only once. HELM strings list units from the 5' end as sugar, base in round brackets, then linkage (d deoxyribose, r ribose, m 2'-O-methyl, p phosphodiester). Strings are as the collection lists them, not checked against the first reports. ss, as = sense and antisense strand; [lna] = locked nucleic acid (LNA); [una] = unlocked nucleic acid; [hna] = hexitol nucleic acid; [s4r] = 4'-thioribose; [fl2r] = 2'-fluoro
Further: test system not given here.

The conditions of the data set: siRNA.
On to “RNA1{m(C)p.r(C)p.m(G)p.r(A)p.m(A)p.r(G)p.m(A)p.r(C)p.m(G)p.r(A)p.m(A)p.r(G)p.m(C)p.r(U)p.m(A)p.r(U)p.m(G)p.r(A)p.m(A)p.r(T)p.r(T)}|RNA2{r(U)p.r(U)p.r(C)p.r(A)p.r(U)p.r(A)p.m(G)p.r(C)p.r(U)p.r(U)p.r(C)p.m(G)p.r(U)p.r(C)p.r(U)p.r(U)p.r(C)p.m(G)p.m(G)p.r(T)p.r(T)}$$$RNA1{StrandType:ss}|RNA2{StrandType:as}$”, for which the target mRNA knockdown was found to be 51%.
Regarding “RNA1{r(C)p.r(G)p.r(C)p.r(C)p.r(C)p.r(C)p.r(C)p.r(C)p.r(U)p.r(C)p.r(A)p.r(A)p.r(G)p.r(C)p.m(U)p.r(A)p.r(C)p.r(C)p.r(G)p.r(T)p.r(T)}|RNA2{r(C)p.r(G)p.r(G)p.m(U)p.r(A)p.r(G)p.r(C)p.r(U)p.r(U)p.r(G)p.r(A)p.r(G)p.r(G)p.r(G)p.r(G)p.r(G)p.r(G)p.r(C)p.r(G)p.r(T)p.r(T)}$$$RNA1{StrandType:ss}|RNA2{StrandType:as}$”, the target mRNA knockdown amounted to 76%.
“RNA1{r(A)p.r(G)p.m(A)p.r(G)p.r(A)p.r(G)p.r(G)p.m(U)p.r(G)p.r(G)p.r(A)p.r(G)p.r(G)p.m(U)p.r(A)p.r(U)p.r(C)p.r(U)p.r(C)p.r(T)p.r(T)}|RNA2{r(G)p.r(A)p.r(G)p.r(A)p.m(U)p.r(A)p.r(C)p.r(C)p.r(U)p.r(C)p.m(C)p.r(A)p.r(C)p.r(C)p.r(U)p.m(C)p.r(U)p.r(C)p.r(U)p.r(T)p.r(T)}$$$RNA1{StrandType:ss}|RNA2{StrandType:as}$”: the target mRNA knockdown stood at 87%.
The figure for “RNA1{r(C)p.r(U)p.r(U)p.r(A)p.r(C)p.r(G)p.r(C)p.r(U)p.r(G)p.r(A)p.r(G)p.r(U)p.r(A)p.r(C)p.r(U)p.r(U)p.r(C)p.r(G)p.r(A)p.r(T)p.r(T)}|RNA2{r(T)p.r(C)p.[lna](G)p.r(A)p.r(A)p.r(G)p.r(U)p.r(A)p.r(C)p.r(U)p.r(C)p.r(A)p.r(G)p.r(C)p.r(G)p.r(U)p.r(A)p.r(A)p.r(G)p.[lna](T)p.[lna](T)}$$$RNA1{StrandType:ss}|RNA2{StrandType:as}$” is 90%; for “RNA1{[lna](G)p.r(G)p.r(C)p.r(C)p.r(U)p.r(U)p.r(U)p.r(C)p.r(A)p.r(C)p.r(U)p.r(A)p.r(C)p.r(U)p.r(C)p.r(C)p.r(U)p.r(A)p.r(C)p.[lna](G)p.[lna](A)}|RNA2{r(G)p.r(U)p.r(A)p.r(G)p.r(G)p.r(A)p.r(G)p.r(U)p.r(A)p.r(G)p.r(U)p.r(G)p.r(A)p.r(A)p.r(A)p.r(G)p.r(G)p.r(C)p.r(C)p.r(A)p.r(G)}$$$RNA1{StrandType:ss}|RNA2{StrandType:as}$” it is 83%; for “RNA1{r(G)p.r(U)p.r(A)p.r(U)p.r(G)p.r(A)p.r(C)p.r(C)p.r(G)p.r(A)p.r(C)p.r(U)p.r(A)p.r(C)p.r(G)p.r(C)p.r(G)p.r(U)p.r(A)p.r(T)p.r(T)}|RNA2{r(U)p.r(U)p.r(C)p.r(A)p.[una](G)p.r(U)p.r(G)p.r(U)p.r(G)p.r(A)p.r(U)p.r(G)p.r(A)p.r(C)p.r(A)p.r(C)p.r(U)p.r(U)p.r(G)p.r(T)p.r(T)}$$$RNA1{StrandType:ss}|RNA2{StrandType:as}$” it is 92%.
With “RNA1{r(A)p.r(G)p.[fl2r](U)p.r(A)p.r(A)p.r(U)p.r(C)p.r(C)p.r(G)p.r(G)p.r(A)p.r(C)p.r(U)p.r(C)p.r(A)p.r(A)p.r(C)p.r(U)p.r(C)p.r(T)p.r(T)}|RNA2{r(G)p.r(A)p.r(G)p.r(U)p.r(U)p.r(G)p.r(A)p.r(G)p.r(U)p.r(C)p.r(C)p.r(G)p.r(G)p.r(A)p.r(U)p.[fl2r](U)p.r(A)p.r(C)p.r(U)p.r(T)p.r(T)}$$$RNA1{StrandType:ss}|RNA2{StrandType:as}$”, the target mRNA knockdown was 69%.
Substance “RNA1{[lna](A)p.r(A)p.r(A)p.r(C)p.r(A)p.r(U)p.r(G)p.r(C)p.r(A)p.r(G)p.r(A)p.r(A)p.r(A)p.r(A)p.r(U)p.r(G)p.r(C)p.r(U)p.r(G)p.[lna](T)p.[lna](T)}|RNA2{r(C)p.r(A)p.r(G)p.r(C)p.r(A)p.r(U)p.r(U)p.r(U)p.r(U)p.r(C)p.r(U)p.r(G)p.r(C)p.r(A)p.r(U)p.r(G)p.r(U)p.r(U)p.r(U)p.r(T)p.r(T)}$$$RNA1{StrandType:ss}|RNA2{StrandType:as}$” displayed a target mRNA knockdown of 82%.
The substance “RNA1{r(G)p.r(A)p.r(C)p.r(G)p.[hna](U)p.r(A)p.r(A)p.[hna](A)p.r(C)p.r(G)p.[hna](G)p.r(C)p.r(C)p.[hna](A)p.r(C)p.r(A)p.r(A)p.r(G)p.[hna](U)p.[hna](U)p.d(T)}|RNA2{r(A)p.r(C)p.r(U)p.r(U)p.r(G)p.r(U)p.r(G)p.r(G)p.r(C)p.r(C)p.r(G)p.r(U)p.r(U)p.r(U)p.r(A)p.r(C)p.r(G)p.[hna](U)p.[hna](C)p.[hna](G)p.d(T)}$$$RNA1{StrandType:ss}|RNA2{StrandType:as}$” had a target mRNA knockdown of 74.2%.
“RNA1{r(A)p.r(A)p.r(A)p.r(C)p.r(A)p.r(U)p.r(G)p.r(C)p.r(A)p.r(G)p.r(A)p.r(A)p.r(A)p.r(A)p.r(U)p.r(G)p.r(C)p.r(U)p.r(G)p.r(T)p.r(T)}|RNA2{r(C)p.r(A)p.r(G)p.r(C)p.r(A)p.r(U)p.r(U)p.r(U)p.r(U)p.r(C)p.r(U)p.r(G)p.r(C)p.r(A)p.r(U)p.[s4r](G)p.[s4r](U)p.[s4r](U)p.[s4r](U)p.r(T)p.r(T)}$$$RNA1{StrandType:ss}|RNA2{StrandType:as}$” had a target mRNA knockdown of 52.7%.
Take “RNA1{r(G)p.r(G)p.r(C)p.m(C)p.r(A)p.r(A)p.r(A)p.r(G)p.m(U)p.r(A)p.r(A)p.r(U)p.r(C)p.r(G)p.m(U)p.r(G)p.r(G)p.r(U)p.r(U)p.r(T)p.r(T)}|RNA2{r(A)p.r(A)p.r(C)p.m(C)p.r(A)p.r(C)p.r(G)p.r(A)p.r(U)p.m(U)p.r(A)p.r(C)p.r(U)p.r(U)p.m(U)p.r(G)p.r(G)p.r(C)p.r(C)p.r(T)p.r(T)}$$$RNA1{StrandType:ss}|RNA2{StrandType:as}$”: the target mRNA knockdown worked out at 86%.
The figure for “RNA1{r(A)p.r(C)p.r(C)p.r(U)p.[fl2r](U)p.r(A)p.r(A)p.r(G)p.r(G)p.r(A)p.r(C)p.[fl2r](C)p.[fl2r](A)p.r(C)p.r(C)p.r(G)p.r(G)p.r(A)p.r(U)p.r(T)p.r(T)}|RNA2{r(A)p.r(U)p.r(C)p.r(C)p.r(G)p.r(G)p.[fl2r](U)p.[fl2r](G)p.r(G)p.r(U)p.r(C)p.r(C)p.r(U)p.[fl2r](U)p.[fl2r](A)p.r(A)p.r(G)p.r(G)p.r(U)p.r(T)p.r(T)}$$$RNA1{StrandType:ss}|RNA2{StrandType:as}$” is 70%; for “RNA1{r(C)p.r(U)p.r(U)p.r(A)p.r(C)p.r(G)p.r(C)p.r(U)p.r(G)p.r(A)p.r(G)p.r(U)p.r(A)p.r(C)p.r(U)p.r(U)p.r(C)p.r(G)p.r(A)p.r(T)p.r(T)}|RNA2{r(T)p.r(C)p.r(G)p.r(A)p.r(A)p.r(G)p.r(U)p.r(A)p.r(C)p.r(U)p.r(C)p.r(A)p.r(G)p.r(C)p.r(G)p.[lna](T)p.r(A)p.r(A)p.r(G)p.[lna](T)p.[lna](T)}$$$RNA1{StrandType:ss}|RNA2{StrandType:as}$” it is 83%.
The figure for “RNA1{r(G)p.r(A)p.r(C)p.r(G)p.r(U)p.r(A)p.r(A)p.r(A)p.r(C)p.r(G)p.r(G)p.r(C)p.r(C)p.r(A)p.r(C)p.r(A)p.r(A)p.r(G)p.[hna](U)p.[hna](U)p.r(C)}|RNA2{r(A)p.r(C)p.r(U)p.r(U)p.r(G)p.r(U)p.r(G)p.r(G)p.r(C)p.r(C)p.r(G)p.r(U)p.r(U)p.r(U)p.r(A)p.r(C)p.r(G)p.r(U)p.r(C)p.r(G)p.r(C)}$$$RNA1{StrandType:ss}|RNA2{StrandType:as}$” is 88.7%.
“RNA1{m(A)p.r(A)p.m(G)p.r(G)p.m(C)p.r(A)p.m(U)p.r(G)p.m(C)p.r(U)p.m(U)p.r(C)p.m(G)p.r(G)p.m(A)p.r(A)p.m(A)p.r(C)p.m(U)p.r(T)p.r(T)}|RNA2{r(A)p.m(G)p.r(U)p.r(U)p.r(U)p.r(C)p.r(C)p.r(G)p.r(A)p.r(A)p.m(G)p.r(C)p.r(A)p.r(U)p.m(G)p.r(C)p.r(C)p.r(U)p.r(U)p.r(T)p.r(T)}$$$RNA1{StrandType:ss}|RNA2{StrandType:as}$”: the target mRNA knockdown is 60%.
The figure for “RNA1{[fl2r](C)p.r(G)p.[fl2r](G)p.r(G)p.[fl2r](U)p.r(A)p.[fl2r](C)p.r(G)p.[fl2r](A)p.r(G)p.[fl2r](C)p.r(C)p.[fl2r](G)p.r(G)p.[fl2r](A)p.r(A)p.[fl2r](C)p.r(C)p.r(U)p.r(T)p.r(T)}|RNA2{r(A)p.r(G)p.r(G)p.r(U)p.r(U)p.r(C)p.r(C)p.r(G)p.r(G)p.r(C)p.r(U)p.r(C)p.r(G)p.r(U)p.r(A)p.r(C)p.r(C)p.r(C)p.r(G)p.r(T)p.r(T)}$$$RNA1{StrandType:ss}|RNA2{StrandType:as}$” is 61%; for “RNA1{r(G)p.r(G)p.r(U)p.r(C)p.r(A)p.r(U)p.r(C)p.r(C)p.r(A)p.r(U)p.r(G)p.r(A)p.r(C)p.r(A)p.r(A)p.r(C)p.r(U)p.r(U)p.r(U)p.d(T)p.d(T)}|RNA2{r(A)p.r(A)p.r(A)p.r(G)p.r(U)p.r(U)p.r(G)p.r(U)p.r(C)p.r(A)p.r(U)p.r(G)p.r(G)p.r(A)p.r(U)p.r(G)p.r(A)p.r(C)p.r(C)p.d(T)p.d(T)}$$$RNA1{StrandType:ss}|RNA2{StrandType:as}$” it is 80% and 94%.
Consider “RNA1{r(A)p.r(G)p.r(C)p.r(G)p.r(A)p.r(U)p.r(C)p.r(C)p.r(C)p.r(G)p.r(A)p.r(A)p.r(C)p.r(A)p.r(A)p.r(G)p.r(U)p.r(A)p.r(U)p.r(T)p.r(T)}|RNA2{r(A)p.m(U)p.r(A)p.r(C)p.r(U)p.r(U)p.r(G)p.r(U)p.r(U)p.r(C)p.r(G)p.r(G)p.r(G)p.r(A)p.r(U)p.r(C)p.r(G)p.r(C)p.r(U)p.r(T)p.r(T)}$$$RNA1{StrandType:ss}|RNA2{StrandType:as}$”, for which the target mRNA knockdown is 85%.
In turn, “RNA1{[fl2r](A)p.r(A)p.[fl2r](G)p.r(G)p.[fl2r](A)p.r(C)p.[fl2r](C)p.r(U)p.[fl2r](A)p.r(G)p.[fl2r](A)p.r(G)p.[fl2r](G)p.r(A)p.[fl2r](G)p.r(U)p.[fl2r](C)p.r(A)p.r(C)p.r(T)p.r(T)}|RNA2{r(G)p.r(U)p.r(G)p.r(A)p.r(C)p.r(U)p.r(C)p.r(C)p.r(U)p.r(C)p.r(U)p.r(A)p.r(G)p.r(G)p.r(U)p.r(C)p.r(C)p.r(U)p.r(U)p.r(T)p.r(T)}$$$RNA1{StrandType:ss}|RNA2{StrandType:as}$” displayed a target mRNA knockdown of 31%.

(Values after the OligoGym collection.)
